Laboratory results reported in patent US12616704B2, “Cannabichromene formulation for pain management” (Zyus Life Sciences Inc., priority 2020, dated 2026).

How the values were obtained:
[1] = Body weight monitoring in SNL study; format: in vivo, Sprague-Dawley rats; details: SNL rats; CBC 10 mg/kg, pregabalin 50 mg/kg; two-way ANOVA, Tukey's
Protocol: Body Weight Monitoring. The body weight of the animals was recorded at baseline evF testing, on the day of surgery (DO), and daily thereafter.

SNL model effect = experiment: Data mining (cPCA) of kinematic gait data: SNL model (analgesic) and sedation effect scores; format: in vivo, rats
Protocol: Data mining was successfully performed to extend the multivariate kinematic data analysis and capture the analgesic effect of cannabichromene (CBC) on quantitative measurement of parameters attributed to the temporal aspects of motion to evaluate temporal aspects of motion, such as positions, angles, velocities, and accelerations of body segments and joints during motion.
Overall, 97 gait parameters were analyzed, and each parameter was averaged within each treatment group. A statistical method using Contrastive Principal Component Analysis (cPCA) was employed (Abid et al., 2018). The method of cPCA was designed to identify different combinations of original variables linked to the Spinal Nerve Ligation (SNL) model effect (pain) and learning effect. An orthogonalization procedure was then performed to create the obtained effects independent of learning and possible sedation. After the contrastive principal components (cPCs) (Model, Sedative) were established, the corresponding cPC scores were computed for each observation. The obtained cPC scores were further analyzed by using mixed two-way ANOVA followed by Dunnett's test of the estimated marginal means. The cPCA based analysis framework was implemented using R environment (R version 3.6.3). Statistical analysis was performed using Ime4 (Bates et al., 2015) and emmeans (R package version 1.4.5.) packages. The results of these comparisons were obtained by using all the previously identified components: model effect, learning effect and model orthogonal to learning.

[2] = tested on: SNL-induced motor phenotype; experiment: Fine motor kinematic gait analysis (MotoRater) in SNL model; format: in vivo, Sprague-Dawley rats; details: for overall gait score, CBC compared to pregabalin: p: CBC 10 mg/kg vs. pregabalin 50 mg/kg; for Overall kinematic gait score, Vehicle vs. treatment: Summary / Overall kinematic gait score, Vehicle vs. treatment: Predicted (LS) mean diff.: between groups
Protocol: The treatment groups received the following test article mixtures: • Group 1: treated with vehicle (0.9% saline) • Group 2: treated with Pregabalin (50 mg/kg) • Group 3: treated with CBC (10 mg/kg)
Administration of Treatments. CBC (cannabichromene) formulation, the vehicle, or pregabalin treatment was administered according to Table 1 on study day 8 to all study animals, and on study day 10 to 6 animals per group. The dousing route of CBC or the vehicle were intragastric (p.o.), while pregabalin was administered intraperitoneally (i.p.). In addition to D8, pregabalin was administered on D9, at 2 h prior to the evf test. All animals of the pregabalin group were euthanized on D9, following the last test trial. The CBC was dissolved and diluted to one of the following vehicles:
Fine Motor Kinematic Gait Analysis. The subjected to gait analysis at the baseline and on study days 8, 9, 11, 14 and 17, at a minimum of 30 min after the evF test. The assay was carried out by MotoRater (TSE Systems, Homburg, Germany), with the walking mode. Prior to commencing the test, the essential body points (e.g. joints, limbs, nose, tail) were marked for tracking. The information of the gait performance was captured using a high speed camera (300 frames/second) from below and both sides. Next, the captured videos are converted to custom software. The raw data was obtained by tracking the marked points of the body from the videos recorded from all 3 dimensions. The raw data thus comprise correlation of the movements of different body points in coordinates related to the ground and each three dimensions.
Different gait patterns and movements were analyzed using a custom made automated analysis system. Information about altogether over a hundred kinematic parameters were attained. These comprised e.g:
All MotoRater data were analyzed for the distinct parameters, as well as for all combined parameters, using principal component analysis (PCA). The obtained results produce the model phenotype in gait analysis i.e. the difference between vehicle and cannabinoid treated animals regarding both individual parameters and PCA.
In addition to the baseline test, the motorater test was performed altogether four times over the course of behavioral study phase: • on D7, to assess the model-specific motor defects prior to dosing, • on D8, after finishing the 4-h evF, • on D8, after finishing the 8-h evF, and • on D9, after finishing the 24-h evF.
The kinematic assay was not performed to the animals before a minimum of 30 min after evF test.

[3] = BL (before dosing), vehicle vs. CBC 10 mg/kg group
[4] = D 8 5 h, vehicle vs. CBC 10 mg/kg
[5] = Table 8, BL (before dosing), vehicle vs. CBC 10 mg/kg group
[6] = Table 8, D 8 5 h, vehicle vs. CBC 10 mg/kg
[7] = within group, CBC 10 mg/kg p.o., pregabalin 50 mg/kg i.p.
[8] = within group, z-score, CBC 10 mg/kg p.o., pregabalin 50 mg/kg i.p.

SMILES: CCCCCc1cc(O)c2c(c1)OC(C)(CCC=C(C)C)C=C2 (centres unmarked) [CBC, cannabichromene]
- body weight vs. vehicle over the course of the study [1]: not significantly different
- SNL model effect score (analgesic effect) (SNL model effect; 9 hours post-dosing, single dose CBC 10 mg/kg p.o.): No significant analgesic effect
- SNL model score (analgesic effect) compared to vehicle group: p (SNL model effect; D8 5 h post-dosing, single dose CBC 10 mg/kg p.o.): < 0.05
- independent sedation effect score (SNL model effect; D8, 5 h and D8, 9 h post-dosing, CBC 10 mg/kg, CBD:THC 10:10 mg/kg): did not exert any sedative effect
- overall gait score, CBC compared to pregabalin: p ([2]; 5 h PD): 0.07693
- overall gait score, CBC compared to pregabalin: p ([2]; 9 h PD): 0.04717
- Ankle ROM Deviation [degree]: Stats [2, 3]: 2.98
- Homolateral Interlimb coordination: Stats [2, 3]: 2.84
- Swing Speed Metric, Hind: Stats [2, 3]: −3.67
- Knee ROM Deviation [degree]: Stats ([2]; BL (before dosing), vehicle vs. treatment group): 2.88
- Overall kinematic gait score, Vehicle vs. treatment: Summary ([2]; Baseline (before SNL and dosing)): ns
- Overall kinematic gait score, Vehicle vs. treatment: Predicted (LS) mean diff. ([2]; Baseline (before SNL and dosing), z-score): −1
- overall Gait score compared to Vehicle ([2]; CBC 10 mg/kg): did not show a significant reduction in overall Gait score compared to Vehicle
- overall gait score, within group comparisons over time ([2]; CBC 10 mg/kg): did not identify a significant time-bound overall gait score difference
- Overall kinematic gait score, Vehicle vs. treatment: Summary ([2]; D7 (pre-dosing)): ns
- Overall kinematic gait score, Vehicle vs. treatment: Predicted (LS) mean diff. ([2]; D7 (pre-dosing), z-score): 0.1511
- Overall kinematic gait score, Vehicle vs. treatment: Summary ([2]; D8 5 h, CBC 10 mg/kg p.o., pregabalin 50 mg/kg i.p.): ns
- Hip Angle, Max [degree]: Stats [2, 4]: 4.29
- Knee Angle, Min [degree]: Stats [2, 4]: 3.78
- Mean Hip Jerk [m/s3]: Adjusted p-value [2, 4]: 0.01
- Mean Hip Jerk [m/s3]: Adjusted p-value Sig? [2, 4]: ** (** p≤0.01)
- Mean Hip Jerk [m/s3]: Stats [2, 4]: −3.04
- Mean Hip Jerk [m/s3]: p-value [2, 4]: 0.01
- Protraction, Hind [m]: Stats [2, 4]: −4.42
- Retraction, Hind [m]: Stats [2, 4]: 4.26
- Step Width, Fore [mm]: Stats [2, 4]: −2.86
- Ankle Angle, Max [degree]: Stats ([2]; D 8 5 h, vehicle vs. treatment, CBC 10 mg/kg, pregabalin 50 mg/kg): −2.85
- Overall kinematic gait score, Vehicle vs. treatment: Predicted (LS) mean diff. ([2]; D8 5 h, z-score, CBC 10 mg/kg p.o., pregabalin 50 mg/kg i.p.): 1.116
- Overall kinematic gait score, Vehicle vs. treatment: Summary ([2]; D8 9 h, CBC 10 mg/kg p.o., pregabalin 50 mg/kg i.p.): ns
- Overall kinematic gait score, Vehicle vs. treatment: Predicted (LS) mean diff. ([2]; D8 9 h, z-score, CBC 10 mg/kg p.o., pregabalin 50 mg/kg i.p.): 0.654
- Overall kinematic gait score, Vehicle vs. treatment: Summary ([2]; D9, CBC 10 mg/kg p.o., pregabalin 50 mg/kg i.p.): ns
- Overall kinematic gait score, Vehicle vs. treatment: Predicted (LS) mean diff. ([2]; D9, z-score, CBC 10 mg/kg p.o., pregabalin 50 mg/kg i.p.): −0.4602
- Homolateral Interlimb coordination, CBC vs. Vehicle: p ([2]; D9 post-dosing, CBC 10 mg/kg): 0.03
- Ankle ROM: Significance [2, 5]: * (p<0.05, significant)
- Ankle ROM: Statistic [2, 5]: 2.98
- Homolateral: Significance [2, 5]: * (p<0.05, significant)
- Homolateral: Statistic [2, 5]: 2.84
- Knee ROM: Significance [2, 5]: * (p<0.05, significant)
- Knee ROM: Statistic [2, 5]: 2.88
- Swing Speed: Significance [2, 5]: ** (p<0.01, very significant)
- Swing Speed: Statistic [2, 5]: −3.67
- Ankle Angle. Max: Significance [2, 6]: * (p<0.05, significant)
- Ankle Angle. Max: Statistic [2, 6]: −2.85
- Hip Angle. Max: Significance [2, 6]: *** (p<0.001, extremely/highly significant)
- Hip Angle. Max: Statistic [2, 6]: 4.29
- Knee Angle. Min: Significance [2, 6]: ** (p<0.01, very significant)
- Knee Angle. Min: Statistic [2, 6]: 3.78
- Mean Hip Jerk: Significance [2, 6]: * (p<0.05, significant)
- Mean Hip Jerk: Statistic [2, 6]: −3.04
- Mean Hip Jerk: p-value [2, 6]: 0.00953
- Protraction. Hind: Significance [2, 6]: *** (p<0.001, extremely/highly significant)
- Protraction. Hind: Statistic [2, 6]: −4.42
- Retraction. Hind: Significance [2, 6]: *** (p<0.001, extremely/highly significant)
- Retraction. Hind: Statistic [2, 6]: 4.26
- Step Width. Fore: Significance [2, 6]: * (p<0.05, significant)
- Step Width. Fore: Statistic [2, 6]: −2.86
- Support Metric gait variables compared to Vehicle ([2]; baseline to D9, CBC 10 mg/kg): No statistical significance was observed
- Overall kinematic gait score, D7 vs. D8 5 h: Summary [2, 7]: ns
- Overall kinematic gait score, D7 vs. D8 9 h: Summary [2, 7]: ns
- Overall kinematic gait score, D7 vs. D9: Summary [2, 7]: ns
- Overall kinematic gait score, D7 vs. Baseline: Summary ([2]; within group, before dosing): ** (p<0.01, very significant)
- Overall kinematic gait score, D7 vs. D8 5 h: Predicted (LS) mean diff. [2, 8]: −0.5337
- Overall kinematic gait score, D7 vs. D8 9 h: Predicted (LS) mean diff. [2, 8]: −1.516
- Overall kinematic gait score, D7 vs. D9: Predicted (LS) mean diff. [2, 8]: −1.619
- Overall kinematic gait score, D7 vs. Baseline: Predicted (LS) mean diff. ([2]; within group, z-score, before dosing): 2.236
